Reference: paper PMC6273592, “Catalytic Synthesis of a New Series of Alkyl Uronates and Evaluation of Their Physicochemical Properties” (Molecules, 2016)
Values after ≈ are worked out from the molar mass of the structure shown. Values joined by “and” are separate entries in the source; they are usually repeats but may differ in a detail not shown here. Identical values can stand only once. “Also recorded” adds a separate entry of the source. Like-named read-outs stand apart in the source and are kept apart here.

How the values were obtained:
[1] = Krafft temperature (Tk) by differential scanning calorimetry; format: physicochemical; details: DSC, aqueous mixture 10% (w/w), heating scan 4 °C to 65 °C, onset of endothermic signal
Protocol: (§1) For each molecule, several samples in 1–2 mL deionized water with various concentrations (between 0.01 mM and 100 mM) were prepared by homogenizing at 500 rpm with a standard magnetic hotplate stirrer MR 3001K (Heidolph Instruments, Schwabach, Germany) for 30 min. The soluble or insoluble character was estimated on the aspect change of corresponding dispersion systems. The concentration limit to obtain an apparently clear solution was noted [C]max. […] This allows the examination of the temperature-driven solubilization behavior and verifies the presence of the Krafft point (Tk), above which the surfactant solubility in water increases abruptly. At Tk, solubility of the surfactant reaches its critical micelle concentration (CMC). In other words, Tk represents the critical temperature at which the micellization process occurs with the dissolution of hydrated surfactant crystals. Thus, Tk can be precisely determined by differential scanning calorimetry (DSC), which has already been proposed by some authors. All of the measurements were performed with a commercial µDSC7 evo calorimeter (SETARAM Instrumentation, Caluire, France). For each molecule, a sample with a concentrated aqueous mixture of 10% (w/w) molecule (C >> CMC) was prepared at 50 °C under magnetic agitation for 30 min to obtain a homogeneous and clear dispersion. These dispersions were then put into a refrigerator at 4 °C for a period over a week, permitting potential phase transitions, including the formation of equilibrated hydrated crystals. Samples of about 300 mg were introduced in the calorimeter cell and equilibrated at 4 °C for 1 h. A heating scan from 4 °C to 65 °C at a rate of 0.5 °C/min was then performed. Tk were identified as the onset of the endothermic signal detected by DSC during the dissolution of hydrated crystals. Tk were calculated as an average of at least two measurements.

[2] = Aqueous solubility: concentration limit of apparently clear solution ([C]max) by visual observation; format: physicochemical; details: for solubility at 30 min: deionized water
Protocol: as §1

[3] = Equilibrium surface tension at the air-aqueous solution interface (Wilhelmy plate); format: physicochemical; details: water; for Amin (minimal area per molecule at air-aqueous solution interface): calculated from Gibbs equation
Protocol: The surface activity of the synthesized molecules was studied mainly in terms of their adsorption behavior on the air-aqueous solution interface. The equilibrium surface tensions γ were measured by means of a Wilhelmy plate using a K100 Processor Tensiometer (KRUSS, Hamburg, Germany). The equilibrium surface tension γ was plotted as a function of the log concentration for all molecules, from which we can derive various parameters, like critical micellar concentration (CMC) extrapolated from the break in the surface tension curve and surface tension at the CMC (γcmc). The surface excess (Γmax) and minimal area per molecule at air-aqueous solution interface (Amin) can be calculated from Gibbs equation for non-ionic surfactants: (2) Гmax=−1/2.303RT(dγ/dlogc) and (3) Amin=10^20/NAГmax where R is the ideal gas constant (8.31 J·mol^−1K^−1)’ T is the measuring temperature (K); γ is the surface tension (N·m^−1), c is the concentration (mol·L^−1); Amin is the minimal area per molecule (Å^2); and NA is Avogadro′s number (6.02 × 10^23 mol^−1).
For each molecule, a series of solutions of different concentrations were prepared well above its Krafft Point, either at room temperature of about 25 °C or at 50 °C, under agitation in a water bath for 30 min. Measurements were carried out for each concentration, either at 25 °C for molecules with a Tk below room temperature, or at T > Tk for those with higher Tk values than 25 °C. The standard deviation for temperature is 1 °C.

[4] = cited from earlier work
[5] = room temperature of about 25 °C, visual observation

| Tk (Krafft Temperature) [1] | solubility at 30 min [2, 5] [µM] | [C]max ([2]; water, 25 °C (Table 2)) [mM] | CMC ([3]; 25 °C) [mM] | γcmc (surface tension at the CMC) ([3]; 25 °C) [mN·m^−1] | Amin (minimal area per molecule at air-aqueous solution interface) ([3]; 25 °C) [Å^2/molecule] | Compound | CMC [4] [mM] | also measured |
| --- | --- | --- | --- | --- | --- | --- | --- | --- |
| 22 ± 0.2 °C | ≥ 30 | 0.03 to 0.05 | 0.056 ± 0.004 | 28.3 ± 0.3 | 45.6 ± 5 | CCCCCCCCCCCCOC(=O)[C@H]1O[C@H](OC)[C@H](O)[C@@H](O)[C@@H]1O [3f, Dodecyl (methyl α-D-glucopyranosid)uronate] | – | – |
| no signal; also recorded: undetected | ≥ 20000 | 15 to 20 | 6.0 ± 0.5 | 29.2 ± 0.4 | 41.0 ± 1 | CCCCCCCCOC(=O)[C@H]1O[C@H](OC)[C@H](O)[C@@H](O)[C@@H]1O [3d, Octyl (methyl α-D-glucopyranosid)uronate] | – | – |
| undetected | 500 to 750 (≈ 174 to 261 µg/mL) | 0.5 to 0.75 | 0.65 ± 0.05 | 28.1 ± 0.1 | 42.4 ± 2 | CCCCCCCCCCOC(=O)[C@H]1O[C@H](OC)[C@H](O)[C@@H](O)[C@@H]1O [3e, Decyl (methyl α-D-glucopyranosid)uronate] | – | – |
| undetected | ≥ 50000 | 50 to 60 | 55 ± 5 | 30.8 ± 0.8 | 39.2 ± 2.9 | CCCCCCOC(=O)[C@H]1O[C@H](OC)[C@H](O)[C@@H](O)[C@@H]1O [3c, Hexyl (methyl α-D-glucopyranosid)uronate] | – | – |

More lines, now with the values behind:

| Compound | Tk (Krafft Temperature) [1] | solubility at 30 min [2, 5] [µM] | [C]max ([2]; water, 25 °C (Table 2)) [mM] | CMC ([3]; 25 °C) [mM] | γcmc (surface tension at the CMC) ([3]; 25 °C) [mN·m^−1] | Amin (minimal area per molecule at air-aqueous solution interface) ([3]; 25 °C) [Å^2/molecule] | CMC [4] [mM] | also measured |
| --- | --- | --- | --- | --- | --- | --- | --- | --- |
| polyoxyethylene sorbitan monolaurate [Tween 20] | – | – | – | – | – | – | 0.050 to 0.059 | – |
| CCCCCCCCOC(=O)[C@H]1O[C@@H](OC)[C@H](O)[C@@H](O)[C@H]1O [compound 5, Octyl (methyl β-D-galactopyranosid)uronate] | 31 ± 0.9 °C | – | – | – | – | – | – | [C]max ([2]; water, 40 °C (Table 2)): >100 mM; [C]max at T > Tk ([2]; water, above Krafft temperature (31 °C)): > 100 mM; [C]max at ≈25 °C (concentration limit of apparently clear solution) ([2]; water, room temperature of about 25 °C, visual observation): insoluble; CMC ([3]; 40 °C): 6.9 ± 0.4 mM; γcmc (surface tension at the CMC) ([3]; 40 °C): 29.4 ± 0.36 mN·m^−1 and 29.4 ± 0.4 mN·m^−1; Amin (minimal area per molecule at air-aqueous solution interface) ([3]; 40 °C): 42.9 ± 3.9 Å^2/molecule |
| polyethylene glycol tert-octylphenyl ether [Triton X-100] | – | – | – | – | – | – | 0.23 to 0.24 | – |
| CCCCCCCCOC(=O)C1OC(OC)C(O)C(O)C1O [compound 7, Octyl (methyl α-D-mannopyranosid)uronate] | no signal; also recorded: undetected | ≥ 5000 | 5.0 to 6.2 | 5.5 ± 0.5 | 28.3 ± 0.3 | 42.8 ± 2 | – | – |
| polyoxyethylene (23) lauryl ether [Brij 35] | – | – | – | – | – | – | 0.03 to 0.09 | – |
